# Key:
# Type in all cases: functional
# Heliothis virescens [1] = test: Antifeedant activity in Heliothis virescens at 0.25 ug/cm'2 relative to dithane
# Heliothis virescens [2] = test: Antifeedant activity in Heliothis virescens at 247.5 ug/cm'2 after 2 days relative to control
# Heliothis virescens [3] = test: Antifeedant activity in Heliothis virescens at 247.5 ug/cm'2 after 4 days relative to control
# Heliothis virescens [4] = test: Antifeedant activity in Heliothis virescens at 247.5 ug/cm'2 after 6 days relative to control
# Heliothis virescens [5] = test: Antifeedant activity in Heliothis virescens at 76.7 ug/cm'2 after 2 days relative to control
# Heliothis virescens [6] = test: Antifeedant activity in Heliothis virescens at 76.7 ug/cm'2 after 4 days relative to control
# Heliothis virescens [7] = test: Antifeedant activity in Heliothis virescens at 76.7 ug/cm'2 after 6 days relative to control
# Heliothis virescens [8] = test: Antifeedant activity in Heliothis virescens at 24.8 ug/cm'2 after 2 days relative to control
# Heliothis virescens [9] = test: Antifeedant activity in Heliothis virescens at 24.8 ug/cm'2 after 4 days relative to control
# Heliothis virescens [10] = test: Antifeedant activity in Heliothis virescens at 24.8 ug/cm'2 after 6 days relative to control
# Heliothis virescens [11] = test: Antifeedant activity in Heliothis virescens at 7.7 ug/cm'2 after 2 days relative to control
# Heliothis virescens [12] = test: Antifeedant activity in Heliothis virescens at 7.7 ug/cm'2 after 4 days relative to control
# Heliothis virescens [13] = test: Antifeedant activity in Heliothis virescens at 7.7 ug/cm'2 after 6 days relative to control
compound,measurement,setting,value
Cc1c(O)c(C=O)c(O)c(C(=O)CCc2ccccc2)c1O,Activity,Heliothis virescens [1],90%
same,Activity,Heliothis virescens [2],90%
same,Activity,Heliothis virescens [3],60%
same,Activity,Heliothis virescens [4],60%
same,Activity,Heliothis virescens [5],90%
same,Activity,Heliothis virescens [6],60%
same,Activity,Heliothis virescens [7],60%
same,Activity,Heliothis virescens [8],90%
same,Activity,Heliothis virescens [9],60%
same,Activity,Heliothis virescens [10],30%
same,Activity,Heliothis virescens [11],60%
same,Activity,Heliothis virescens [12],60%
same,Activity,Heliothis virescens [13],30%
